Test results published in PubChem BioAssay (NCI).
Values joined by “and” are separate entries in the source; they are usually repeats but may differ in a detail not shown here. Identical values can stand only once.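 All cell lines were grown in 96-well plates and treated with compound for 48 hours. Abbreviation: GI50, concentration required for 50% inhibition of growth. TGI: concentration producing complete growth inhibition.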

system: MDA-MB-468 breast; assay: inhibition of tumour cell growth, NCI panel, 48 h

Row | SMILES | GI50 | TGI
1 | CC(C)(O)CNc1nc(Nc2ccnc(C(F)(F)F)c2)nc(-c2cccc(C(F)(F)F)n2)n1 | 18 µM | 38.5 µM
2 | CCCCCO/N=C\c1c2c(O)c3c(O)c(C)c4c(c3c1O)C(=O)C(C)(O/C=C\C(OC)C(C)C(OC(C)=O)C(C)C(O)C(C)C(O)C(C)/C=C\C=C(\C)C(=O)N2)O4 (configuration not stated) | 2.17 µM | 6.33 µM
3 | O=[N+]([O-])c1ccc(N2CCOCC2)c2c1no[n+]2[O-] | 0.769 µM | 2.83 µM
4 | COC(=O)c1cncc(/C=C/c2c(C)cc(O)cc2C)c1 | 4.32 µM | 12.6 µM
5 | CCN(CC)CCCCCCNc1cc(OC)cc2cccnc12 | 1.93 µM | 3.8 µM
6 | CSc1nc2sc3c(c2c(=O)n1-c1ccc(C(C)C)cc1)CCC(=O)C3 | 2.16 µM | 5.99 µM
7 | NS(=O)(=O)c1ccc(-c2cc3ccncc3cc2OCc2ccccc2)cc1 | 13.4 µM | > 25 µM
8 | O=C(/C=C/c1cccc(O)c1)c1cccc(-n2cc(-c3ccccc3)[nH]c2=O)c1 | 2.46 µM | 7.7 µM
9 | Cn1cc(C2=C(c3cccc(OC[C@@H](O)CO)c3)C(=O)NC2=O)c2ccccc21 | > 25 µM | > 25 µM
10 | Oc1c(I)cc(I)c2cccnc12 | 7.01 µM | 30.3 µM
11 | Cc1cccc2c3c(sc12)C(c1ccc(Cl)cc1)C(C#N)=C(N)O3 (configuration not stated) | 0.277 µM | 3.75 µM
12 | N#CC1=C(/N=C/c2ccccc2)Oc2c(ccc3ccccc23)C1c1ccccc1 (configuration not stated) | 0.247 µM | 0.741 µM
13 | COc1cc(/C=C/C(=O)c2cccc(-n3cc(-c4ccc(Cl)cc4)[nH]c3=O)c2)cc(OC)c1OC | 12.8 µM | 34.7 µM
14 | C=CCN1CC(=O)N2[C@@H](Cc3ccc(O)cc3F)C(=O)N(Cc3cccc(N4CC(N5CCN(CC)CC5)C4)n3)C[C@@H]2N1C(=O)NCc1ccccc1 | 0.232 µM | > 100 µM
15 | O=C(Nc1cccc(-n2cc(-c3ccncc3)c(-c3cc(O)cc(Cl)c3)n2)c1)c1cc(C(F)(F)F)cc(C(F)(F)F)c1 | 3.1 µM | > 100 µM
16 | O=C(N/N=C/c1ccco1)c1[nH]c2ccc(Br)cc2c1-c1ccccc1 | 0.22 µM | 2.4 µM
17 | c1ccc2cc(-c3n(Cc4ccc5ccccc5n4)c4ccccc4[n+]3Cc3ccc4ccccc4n3)ccc2c1 | 0.116 µM | 0.529 µM
18 | Cc1cc(N(CCCNc2ccnc3cc(Cl)ccc23)Cc2ccco2)nc(N2CCN(C)CC2)n1 | 1.81 µM | 4.32 µM
19 | CC1OC(OC2C(O)CC(OC3C(O)CC(OC4CCC5(C)C(CCC6C5CC(O)C5(C)C(C7=CC(=O)OC7)CCC65O)C4)OC3C)OC2C)CC(O)C1O (configuration not stated) | 0.159 µM | 0.364 µM
20 | CC(=O)NCc1cccc(C#Cc2cncnc2Nc2ccc(OCc3cccc(F)c3)c(Cl)c2)c1 | 1.29 µM | 6.29 µM
21 | Cc1ccc(-c2nc([P+](c3ccccc3)(c3ccccc3)c3ccccc3)c(S(=O)(=O)c3ccc(C)cc3)o2)cc1 | 1.03 µM | 2.6 µM
22 | COc1ccc(C(=O)c2c(N)c(C#N)cn2-c2cccc(OC)c2)cc1 | 1.12 µM | 4.23 µM
23 | c1ccc2c(c1)Nc1ccncc1S2 | 18.9 µM | 50.8 µM

Row | SMILES | GI50 | TGI
24 | COC(=O)[C@H]1CCCN1C(=O)[C@H]1CCCN1C(=O)[C@@H](Cc1c[nH]c2ccccc12)NC(=S)Nc1cc(C(F)(F)F)cc(C(F)(F)F)c1 | 2.26 µM | 5.9 µM
25 | COc1cc2nc(-c3cc(F)ccc3O)nc(N[C@@H]3CNC[C@H]3C(C)(C)O)c2cc1OC | 1.64 µM | 3.12 µM
26 | Nc1nc(Nc2ccccc2SSc2ccccc2Nc2nc(N)nc(C(Cl)(Cl)Cl)n2)nc(C(Cl)(Cl)Cl)n1 | 4.7 µM | 29.1 µM
27 | CN(CCNCc1ccccn1)CCNCc1ccccn1 | 2.71 µM | 7.93 µM
28 | O=C(CC1(O)C(=O)N(Cc2ccccc2)c2ccccc21)c1ccc(C(=O)NCC2CCC3(CC2)OOC2(CCCCC2)OO3)cc1 (configuration not stated) | 1.49 µM | 3.31 µM
29 | Oc1ccc(C(c2ccc(O)cc2)c2ccc(Br)cn2)cc1 | 0.234 µM | 0.637 µM
30 | CC1=C(CC(=O)c2cccc([N+](=O)[O-])c2)C(=O)c2ccccc2C1=O | 1.77 µM | 5.9 µM
31 | O=C(CCCCCCN1CC(=O)N2[C@@H](c3ccc(Cl)c(Cl)c3)c3[nH]c4ccccc4c3C[C@H]2C1=O)NO | 1.89 µM | 7.42 µM
32 | COc1cc2c(cc1OCCCCN1CCN(C(=S)SCCC(C#N)(c3ccccc3)c3ccccc3)CC1)N=C[C@@H]1CCCN1C2=O | 0.499 µM | 31.4 µM
33 | CCCCCCNC(=O)Oc1ccc(/C(=C(\C)c2ccc(Cl)cc2)c2ccc(OCCN3CCCCC3)cc2)cc1 | 3.46 µM | 8.7 µM
34 | C#CCNC(=O)[C@H](CC)[C@H]1CC[C@H](C)[C@H]([C@@H](C)[C@H](O)[C@H](C)C(=O)[C@H](CC)C2O[C@]3(C=CC(=O)[C@]4(CC[C@@](C)([C@H]5CC[C@](O)(CC)[C@H](C)O5)O4)O3)[C@H](C)C[C@@H]2C)O1 (some centres not stated) | 2.51 µM | 21.5 µM
35 | O=C1OC(C(O)CO)C(O)=C1O (configuration not stated) | 1820 µM and 2020 µM | 3760 µM and 4400 µM
36 | Cc1cc(C#Cc2ccc(C(C)(C)C)cc2)ccc1-n1c(/C=C/c2ccc(O)cc2O)nc2ccccc2c1=O | 2.2 µM | 6.5 µM
37 | C[C@]12CC[C@@H]3c4cc(OC(F)F)c(OS(N)(=O)=O)cc4CC[C@H]3[C@@H]1CC[C@@H]2O | 0.244 µM | 1.42 µM
38 | C/C(=C\c1cnc(C)s1)[C@@H]1C[C@@H]2O[C@@H]2CCC[C@H](C)[C@H](O)[C@@H](C)C(=O)C(C)(C)[C@@H](O)CC(=O)O1 | < 0.01 µM | 1.81 µM
39 | COc1ccc(N(CC(=O)NCCC[Te]c2ccccc2)C(=O)CNC(=O)OC(C)(C)C)cc1 | 3.2 µM | 10.9 µM
40 | CCc1cccc(C)c1NC(=O)c1sc2nc3c(cc2c1N)C(=O)CCC3 | 0.377 µM | 60.5 µM
41 | N#CCCN1C/C(=C/c2ccc(Cl)cc2)C(=O)/C(=C/c2ccc(Cl)cc2)C1 | 1 µM | 2.89 µM
42 | COc1ccc(-c2nc(/C=C3\SC(=NCc4ccccc4)NC3=O)c3ccccn23)cc1 | 1.9 µM | 4.39 µM
43 | Oc1cccc2ccc(N/N=C/c3cc(CN4CCOCC4)c(O)c4ncccc34)nc12 | 0.0302 µM | 0.289 µM
44 | COC1=C(OC)C(=O)C(SC/C=C(\C)CCCC(C)CCCC(C)CCCC(C)C)=CC1=O (configuration not stated) | 3.33 µM | > 100 µM
45 | COc1ccc(/C=C(\C#N)n2nnc3c(F)cccc32)cc1 | 1.58 µM | 6.67 µM
46 | C(=N/N(Cc1ccccc1)Cc1ccccc1)/c1ccccc1 | > 100 µM | > 100 µM
